The target of test [1] is Mitogen-activated protein kinase 14 (Homo sapiens, UniProt Q16539). Kind of test: Inhibition of p38alpha.
Another test concerns Blood. Kind of test: Antiinflammatory activity in human whole blood assessed as inhibition of LPS-stimulated TNFalpha release after 15 mins by ELISA. The format is functional, tissue-based. Conditions: 0.25 h. On the technique in general: An ELISA detects its analyte on a solid surface through an enzyme-linked reagent.

Mitogen-activated protein kinase 14, sequence (Q16539 whole entry): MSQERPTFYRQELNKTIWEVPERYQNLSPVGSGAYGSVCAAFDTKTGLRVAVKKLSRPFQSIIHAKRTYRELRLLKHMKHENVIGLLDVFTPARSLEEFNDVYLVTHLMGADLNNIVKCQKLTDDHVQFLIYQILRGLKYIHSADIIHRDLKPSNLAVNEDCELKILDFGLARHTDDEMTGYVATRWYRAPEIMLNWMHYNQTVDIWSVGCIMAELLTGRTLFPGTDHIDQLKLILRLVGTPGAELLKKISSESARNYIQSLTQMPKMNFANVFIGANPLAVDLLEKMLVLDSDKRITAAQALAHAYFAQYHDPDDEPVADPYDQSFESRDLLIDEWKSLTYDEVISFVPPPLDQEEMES

Broadly, the IC50 is the concentration at which inhibition is half-maximal. In the case of `O=c1[nH]c(-c2ccncc2)c(-c2ccc(F)cc2)[nH]1`, in test [1], the midpoint of inhibition, the IC50, lay at 468 nM.
For the compound `O=c1[nH]c(-c2ccc(F)cc2)c(-c2ccnc(N[C@H]3CC[C@H](O)CC3)c2)[nH]1`, the values for the IC50 (in test [1]; with Blood) were 23 nM and 2920 nM, respectively.
On the same counts, the results for `CC(C)[C@H](C)Nc1cc(-c2[nH]c(=O)[nH]c2-c2ccc(F)cc2)ccn1` are 49 nM and 381 nM.
Compound `C[C@@H](Nc1cc(-c2[nH]c(=O)[nH]c2-c2ccc(F)cc2)ccn1)c1ccccc1` gave an IC50 in test [1] of 324 nM.
As to `C[S+]([O-])c1ccc(-c2nc(-c3ccc(F)cc3)c(-c3ccncc3)[nH]2)cc1` (configuration not stated) [SB-203580], the IC50 in the test with Blood came to 1760 nM.

Source of the values: ChEMBL document CHEMBL1177704, “Unexpected reaction of 2-alkylsulfanylimidazoles to imidazol-2-ones: pyridinylimidazol-2-ones as novel potent p38alpha mitogen-activated protein kinase inhibitors” (J Med Chem, 2010).
